# Patent publication US20170342312A1, “COMPOSITION AND METHOD FOR VISCOSITY CONTROL IN DELIVERY APPLICATIONS USING SUBSEA UMBILICALS” (BAKER HUGHES, A GE COMPANY, LLC, priority 2016, published 2017)
# Where “and” joins values, the source holds several entries; their conditions need not be identical. Equal values may be shown once. Read-outs that look alike come from different tables or passages of the source.
# What was measured:
# Solvent flash point = type: physicochemical
# Solvent freezing point = type: physicochemical
# [1] = Solvent viscosity at 20° C.; type: physicochemical; conditions: 20° C./1 Bar
# [2] = at 20° C.; background statement; cited from earlier work
# [3] = Corrosion rate, autoclave tests; conditions: corrosion values of Tables 2 and 3
# Protocol: The corrosion rates shown in Table 2 were obtained using autoclave tests at 80° C., a partial pressure of CO2 of 0.75 bar, a brine/hydrocarbon ratio of 99 to 1 and a shear stress of 60 Pa.
# fish = conditions: according to MSDS; cited from earlier work
# [4] = according to MSDS; cited from earlier work
# algae = conditions: according to MSDS; cited from earlier work
# [5] = according to MSDS; cited from earlier work; remark: listed apart in the source
# invertebrates = conditions: in vivo; cited from earlier work
# [6] = listed as ethylene glycol n-butyl ether acetate
SMILES,Flash Point (Solvent flash point),Freezing Point (Solvent freezing point),Viscosity [1],further results
CO [Methanol],12 °C,−97.8 °C,0.59 cP,
CC(O)CO (stereo not drawn) [Propylene Glycol],99.0 °C,−59.0 °C,55.0 cP,
"CCCCOCCO [Butyl Cellosolve ™, ethylene glycol monobutyl ether]",67.0 °C,−75.0 °C,2.9 cP,
OCCO [Monoethylene Glycol],116 °C,−13.0 °C,17.3 cP,Viscosity [2]: 17 cP
O [Water],,0 °C,0.895 cP,
"CCCCOCCOC(C)=O [Ethylene Glycol N-Butyl Ether Acetate, ethylene glycol n-butyl ether acetate]",78 °C,−64.0 °C,1.81 cP,"Flash Point (Solvent flash point; [6]): about 78 °C; Freezing Point (Solvent freezing point; [6]): about −64 °C; effect of solvent on performance of the corrosion inhibitors [3]: did not significantly affect the performance of the corrosion inhibitors; Viscosity [1, 6]: 1.79 cP and 1.81 cP; LC50 for fish (fish): > 10 µg/mL; Log Pow bioaccumulation potential [4]: less than 3; EbC50 for algae (algae): > 10 mg/L; biodegradable in seawater [5]: 77-90%; EC50 for invertebrates (invertebrates): > 10 µg/mL"
CC(C)O [Isopropanol],14 °C,−89.0 °C,2.1 cP,
